# In US8835411B2, “HIV integrase inhibitors” (priority 2010, dated 2014):
# Tested on: recombinant NL-Rluc virus
# Assay: Inhibition of HIV Replication: recombinant NL-Rluc virus, Renilla luciferase reporter
# Type: cell-based
# Details: read-out: Cell Culture, serum condition of the table not stated (10% FBS, 15 mg/ml human serum albumin/10% FBS or 40% human serum/5% FBS), at least 2 experiments
smiles,measurement,value
CC(=O)NC12CCC(NC(=O)C(=O)N(C)C)(CC1)c1nc(C(=O)NCc3ccc(F)c(C)c3)c(O)c(=O)n1C2 [Example 90],EC50,< 10 nM
